Values quoted from earlier work, collected in US20070225337A1, “Novel Co-Precipitate of Amorphous Rosiglitazone” (SANDOZ AG, priority 2004, published 2007).

How the values were obtained:
[1] = compared with the corresponding free base

stability in the solid form: good stability in the solid form
SMILES: CN(CCOc1ccc(CC2SC(=O)NC2=O)cc1)c1ccccn1.O=C(O)/C=C\C(=O)O (centres unmarked) [Rosiglitazone maleate, 5-[4-[2-[N-methyl-N-(2-pyridyl)amino]ethoxy]benzyl]thiazolidine-2,4-dione maleate]
solubility in water [1]: significantly more soluble in water than the corresponding free base
